# Literature values, collected in article PMC3294027 (Methods (San Diego, Calif.), 2011).
# Where two headings read alike, the source gives them in different places.
# What was measured:
# [1] = test system: antibody 2D12.5; conditions: 0.1 M sodium phosphate, pH 7.0, SD in parentheses
# [2] = test system: antibody 2D12.5; conditions: for Half-life / koff: TBS pH 7.4, Avg(SD); for Calc kon: calculated as koff/KD
Substance,KA ([1]; 30 °C),Kd ([1]; 30 °C) [nM],ΔG ([1]; 30 °C),ΔH ([1]; 30 °C),ΔS ([1]; 30 °C),KA ([1]; 37 °C),Kd ([1]; 37 °C) [nM],ΔG ([1]; 37 °C),ΔH ([1]; 37 °C),ΔS ([1]; 37 °C),Half-life ([2]; 30°C) [min],koff ([2]; 30°C),Calc kon ([2]; 30°C) [M⁻¹ s⁻¹],Half-life ([2]; 37°C) [min],koff ([2]; 37°C),Calc kon ([2]; 37°C) [M⁻¹ s⁻¹]
"cobalt(II) S-2-(4-aminobenzyl)-1, 4, 7, 10-tetraazacyclododecanetetraacetate [ABD(Co)]",8.2(±0.9) ×10^5 M^−1,1200,−8.2(±0.1) kcal/mol,−12.2(±0.4) kcal/mol,−13.2(±1.3) cal/mol-K,7.1(±0.4) ×10^5 M^−1,1400,−8.3(±0.1) kcal/mol,−12.4(±4.8) kcal/mol,−13.3(±4.8) cal/mol-K,–,–,–,–,–,–
"yttrium S-2-(4-aminobenzyl)-1, 4, 7, 10-tetraazacyclododecanetetraacetate [ABD(Y)]",3.3(±2.1) ×10^8 M^−1,3.1,−11.7(±0.4) kcal/mol,−18.2(±0.5) kcal/mol,−21.5(±2.9) cal/mol-K,5.2(±0.9) ×10^8 M^−1,2,−12.4(±0.2) kcal/mol,−20.1(±1.2) kcal/mol,−24.9(±4.1) cal/mol-K,2.68 ± 0.217,4.0(±0.3) x10^−3 s−1,1.3e+06,1.62 ± 0.15,7.0(±0.7) ×10^−3 s−1,3.5e+06
